Assays:
[1] = Membrane selectivity from high-throughput dye leakage screen; type: biochemical; settings: PC = POPC, PG = POPG
Description: (§1) This detects and quantifies the release of a small fluorescent dye (ANTS/DPX; MW=˜400 Da) encapsulated in LUVs after addition of library peptides. Neutral POPC LUVs serve as a simple model for mammalian membranes, while charged POPG LUVs mimic bacterial membranes enriched in anionic lipids.

[2] = ANTS/DPX leakage assay, POPG; type: biochemical; settings: P:L = 1:1000, pH 7 phosphate buffer
Description: (§2) 5 mM ANTS and 12.5 mM DPX were entrapped in 0.1 μm diameter extruded vesicles with lipids. Gel filtration chromatography of Sephadex G-100 (GE Healthcare Life Sciences Inc.) was used to remove external free ANTS/DPX from LUVs with entrapped contents. […] Leakage was measured after 3 hr incubation. 10% Triton was used as the positive control to measure the maximum leakage of the vesicle. Fluorescence emission spectra were recorded using excitation wavelength (Ex: 350 nm) and emission wavelength (Em: 510 nm) for ANTS/DPX using Synergy H1 Hybrid Multi-Mode Reader.
as §1

[3] = 3-kDa dextran macromolecule release assay, POPG; type: biochemical; settings: P:L = 1:1000, pH 7 phosphate buffer
P. aeruginosa = experiment: Bacterial minimum inhibitory concentration (MIC), P. aeruginosa; type: cell-based, Pseudomonas aeruginosa; settings: 75 μM maximum tested; NDA = not determinable
Description: (§3) Escherichia colt strain ATCC 25922, Staphylococcus aureus strain ATCC 25923, and Pseudomonas aeruginosa strain ATCC PAO1 were used in this study. Overnight cultures were subcultured to log phase (OD600=0.3-0.6) after which cell counts were determined by measuring the OD600 (OD600 1.0=1.5×10^8 CFU/mL for S. aureus, 5×10^8 CFU/mL for E. colt, and 2.04×10^8 CFU/mL for P. aeruginosa). Bacteria in minimal media mere added to serially diluted peptides and incubated for 3 hr, followed by the addition of full growth media. After overnight incubation, the optical density of the wells was recorded on a plate reader to determine whether they were sterilized (OD<0.08) or were at stationary phase growth (OD600>0.5). Intermediate values, which were rare, were considered positive for growth. Average minimum sterilizing concentrations were calculated from the lowest peptide concentration that sterilized the bacteria in each serial dilution. The samples were done in sextuplet.

[4] = tested on: methicillin-resistant Staphylococcus aureus (MRSA); type: cell-based; settings: 75 μM maximum tested; NDA = not determinable
[5] = Pore-size characterization by 3-kDa dextran release; type: biochemical; settings: ‡Large pore for PG only
Description: Eight LDKA peptides with different lipid selectivity and pore sizes were selected from the high-throughput screen and sequenced. […] The most common mutation is L to A, occurred 13 times and in 7 out of the 8 peptides, followed by A to L, which occurred 6 times in 5 peptides, L to D which occurred 3 times in 3 peptides, and L to P that occurred once. Lysine (K) is not favorable to be shown at the position 6, 8, 10, 12, and 13, which is the non-polar face of the helical structure. […] More specifically, the analogs only induce leakage from anionic POPG vesicles have 4-5 leucines, which is less than the analogs that can porate both POPC and POPG vesicles and have 6-7 leucines in their sequences.

[6] = Circular dichroism secondary structure (Dichroweb), with POPC; type: physicochemical
Description: (§4) Dichroweb software analyzes the secondary structure of LDKA peptides from circular dichroism spectroscope. The table presents the percentage of each helix and strand structure at different temperature. The data are analyzed using CONTIN-LL method and Reference Set 4 (Optimised for 190-240 nm).
(§5) Peptide solutions (peptide concentration is 50 μM) were titrated with POPC and POPG LUVs (50, 100, 250, 500, 1000 μM) and the corresponding changes CD spectra collected. Analysis of these spectra using CD tools and Dichroweb provides an ensemble average of the changes in secondary structure in the presence of POPC and POPG LUVs (dichroweb.cryst.bbk.ac.uk), which gives a direct measure of the binding free energies for each peptide.

[7] = Circular dichroism secondary structure (Dichroweb), peptide only; type: physicochemical; settings: 20 °C
Description: as §4, §5

S. aureus = experiment: Bacterial minimum inhibitory concentration (MIC), S. aureus; type: cell-based, Staphylococcus aureus; settings: 75 μM maximum tested; NDA = not determinable
Description: as §3

[8] = Circular dichroism secondary structure (Dichroweb), with POPG; type: physicochemical
Description: as §4, §5

human red blood cells = experiment: Hemolysis assay; type: cell-based
Description: (§6) Fresh human red blood cells were obtained from Interstate Blood Bank, Inc., and thoroughly washed in PBS until the supernatant was clear. hRBC concentration was determined using a standard hemocytometer. In hemolysis assays serial dilutions of peptide were prepared, followed by the addition of 2×10^8 hRBC/mL. After incubation for 1 hr at 37° C. the cells were centrifuged and the released hemoglobin was measured by optical absorbance of the heme group (410 nm). Negative control was buffer only (0% lysis), and the positive control was 20 μM melittin and distilled water (100% lysis). The samples were done in triplicate.

Hemolysis assay = type: cell-based, human; settings: human
Description: as §6

[9] = ANTS/DPX leakage assay, POPC; type: biochemical; settings: P:L = 1:1000, pH 7 phosphate buffer
Description: as §2, §1

[10] = provided by the distributor, GenScript; cited from earlier work
[11] = 3-kDa dextran macromolecule release assay, POPC; type: biochemical; settings: P:L = 1:1000, pH 7 phosphate buffer
Description: Several different size dextrans were prepared and labelled with both TAMRA and biotin. Conjugated dextran was entrapped in POPC LUVs as described above. External dextran was removed by incubation with immobilized streptavidin. Streptavidin labelled with an Alexa-488 fluorophore was added during the leakage experiment with the peptide as previous described.^5 The sample was then incubated for 3 hr before measuring Alexa-488 fluorescence. A control without added peptide served as the 0% leakage signal and addition of 0.05% vol. Triton X-100 was used to determine 100% leakage.

## H-GLLDLLKLLLKLAGW-NH2 [Peptide 28H6]
[1]
  Membrane selectivity (POPC vs POPG vesicles): Non-selective
[2]
  ANTS/DPX release, POPG: 105%
[3]
  3-kDa Dextran release, POPG: 67%
P. aeruginosa
  Minimum Inhibitory Concentration, P. aeruginosa: NDA
[4]
  Minimum Inhibitory Concentration, MRSA: NDA
[5]
  Pore size: Large
[6]; 20 °C
  Peptide-POPC, Helix: 58%
  Peptide-POPC, Strand: 10%
[6]; 45 °C
  Peptide-POPC, Helix: 64%
  Peptide-POPC, Strand: 6%
[6]; 70 °C
  Peptide-POPC, Helix: 68%
  Peptide-POPC, Strand: 6%
[6]; 95 °C
  Peptide-POPC, Helix: 65%
  Peptide-POPC, Strand: 3%
[7]
  Peptide-only, Helix: 63%
  Peptide-only, Strand: 4%
S. aureus
  Minimum Inhibitory Concentration, S. aureus: NDA
[8]; 20 °C
  Peptide-POPG, Helix: 18%
  Peptide-POPG, Strand: 32%
[8]; 45 °C
  Peptide-POPG, Helix: 23%
  Peptide-POPG, Strand: 29%
[8]; 70 °C
  Peptide-POPG, Helix: 27%
  Peptide-POPG, Strand: 25%
[8]; 95 °C
  Peptide-POPG, Helix: 55%
  Peptide-POPG, Strand: 7%
Human red blood cells
  Hemolytic activity (in words): significantly haemolytic
Hemolysis assay
  HC50 at 1 hr: 1200 nM
[9]
  ANTS/DPX release, POPC: 99%
[10]
  Solubility, DMSO: 15000 µg/mL
  Solubility, DPBS pH 7.1: <0.1 mg/mL
  Solubility, Ultrapure Water: 500 µg/mL
[11]
  3-kDa Dextran release, POPC: 38%
